In brackets after ≈: the same amount, converted by molar mass. Like-named read-outs stand apart in the source and are kept apart here.
Assays:
[1] = molecular target: T1, EGFRwt (Homo sapiens, UniProt P00533); assay: KINOMEScan KdELECT Kd determination; assay type: binding; settings: wt; read-out: EGFR Kd
T1 construct: purchased Eurofins DiscoverX (contract assay)
Experimental: (§2) In vitro kinase activity (inhibitor binding constants (Kd) and biochemical inhibition (IC50’s)) were assessed by Eurofins DiscoverX (Kd determinations) and Eurofins Cerep (biochemical IC50 determinations).

[2] = molecular target: T2, EGFR del E746_A750 (Homo sapiens, UniProt P00533, DEL746-750); assay: KINOMEScan KdELECT Kd determination; assay type: binding
T2 construct: purchased Eurofins DiscoverX (contract assay)
T2 sequence (P00533 with tags, fused parts or gaps DEL746-750): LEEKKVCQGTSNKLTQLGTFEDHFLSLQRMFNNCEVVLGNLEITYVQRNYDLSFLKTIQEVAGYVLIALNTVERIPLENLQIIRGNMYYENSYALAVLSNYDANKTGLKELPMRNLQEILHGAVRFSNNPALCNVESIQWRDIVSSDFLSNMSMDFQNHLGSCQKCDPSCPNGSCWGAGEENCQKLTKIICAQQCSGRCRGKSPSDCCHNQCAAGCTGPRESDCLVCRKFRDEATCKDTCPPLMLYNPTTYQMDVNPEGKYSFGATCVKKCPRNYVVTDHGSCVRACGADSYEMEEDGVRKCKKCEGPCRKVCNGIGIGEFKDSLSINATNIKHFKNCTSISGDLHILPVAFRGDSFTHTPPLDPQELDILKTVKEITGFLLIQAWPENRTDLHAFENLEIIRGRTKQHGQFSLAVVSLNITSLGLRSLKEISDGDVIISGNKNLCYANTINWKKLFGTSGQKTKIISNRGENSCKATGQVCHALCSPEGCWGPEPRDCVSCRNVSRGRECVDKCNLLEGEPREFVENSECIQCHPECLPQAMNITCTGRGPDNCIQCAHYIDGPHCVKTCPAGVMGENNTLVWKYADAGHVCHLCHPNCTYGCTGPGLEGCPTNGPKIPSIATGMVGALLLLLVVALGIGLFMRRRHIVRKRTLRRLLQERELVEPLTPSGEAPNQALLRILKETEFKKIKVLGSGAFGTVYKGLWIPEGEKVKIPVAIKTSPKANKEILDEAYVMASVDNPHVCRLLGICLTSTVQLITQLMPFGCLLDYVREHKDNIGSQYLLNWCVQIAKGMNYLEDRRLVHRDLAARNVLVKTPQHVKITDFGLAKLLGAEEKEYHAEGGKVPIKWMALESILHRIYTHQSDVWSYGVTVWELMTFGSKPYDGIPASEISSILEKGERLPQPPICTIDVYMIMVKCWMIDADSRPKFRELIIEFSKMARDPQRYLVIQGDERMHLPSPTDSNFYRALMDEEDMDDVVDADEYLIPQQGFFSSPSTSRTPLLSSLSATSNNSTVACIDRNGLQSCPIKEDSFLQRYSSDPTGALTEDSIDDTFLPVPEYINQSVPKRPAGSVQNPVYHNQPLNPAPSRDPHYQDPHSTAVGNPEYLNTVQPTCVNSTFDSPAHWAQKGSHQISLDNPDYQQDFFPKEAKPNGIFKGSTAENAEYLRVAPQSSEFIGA
Experimental: as §2

[3] = molecular target: T1, EGFRwt; assay: KinaseProfiler enzymatic radiometric assay; assay type: biochemical; settings: wt, ATP 10 μM; read-out: EGFR IC50
Experimental: as §2

[4] = system: HCC827 (EGFR mutation = exon19del); assay: CellTiter-Glo cell viability assay; assay type: cell-based, human; settings: Homo sapiens, HCC827; 72 h, unadjusted for FBS
Experimental: (§3) The NCI-H3255 cell line was obtained from CoBioer. […] NCI-H3255 cells were cultured in BEGM (Lonza) with 10% FBS. […] All cells were cultured in a humidified incubator with 5% CO2 at 37 °C.
(§4) Viability assays using A431, HCC827, NCI-H1975, NCI-H3255, Ba/F3 EGFR-del E746_A750/C797S, Ba/F3 EGFR-L858R/C797S, AU565, SK-BR-3, and ZR-75-30 cells were performed at Crown BioScience.

[5] = system: NCI-H3255 (EGFR mutation = L858R); assay: CellTiter-Glo cell viability assay; assay type: cell-based, human; settings: Homo sapiens, NCI-H3255; 72 h, unadjusted for FBS
Experimental: as §3, §4

[6] = Lipophilicity, shake-flask; assay type: physicochemical; settings: 1-octanol/PBS; 1-octanol and PBS (pH 7.4); read-out: logD7.4
Experimental: Compound lipophilicity was determined by Pharmaron, Inc. using the shake-flask method with 1-octanol and PBS (pH 7.4). Each compound was assessed in duplicate (n = 2) at 1 μM in a 96-well plate shaken at 25 °C and 2000 rpm for 2 h. Samples were analyzed by liquid chromatography and tandem mass spectrometry (LC-MS/MS).

[7] = Solubility assay; assay type: physicochemical; settings: buffer, pH 7.4, aqueous buffer; read-out: Aq. Sol.
Experimental: Solubility was determined by Pharmaron, Inc. and each compound was assessed in duplicate (n = 2) by adding 15 μL of compound stock solution (10 mM in DMSO) into a 96-well plate along with 485 μL of buffer followed by shaking at 25 °C, 1100 rpm for 2 h. Wells were filtered, and samples (5 μL) were taken followed by dilution with an equal volume of DMSO (5 μL) and 490 μL of aqueous solution. Samples were analyzed by LC-MS/MS.

[8] = Metabolic stability in liver microsomes; assay type: in vitro ADME, human; settings: for Remaining Percentage: human LM
Experimental: (§5) Microsome stability was assessed in duplicate (n = 2) in the presence and absence of nicotinamide adenine dinucleotide phosphate (NADPH) with liver microsomes (0.5 mg/mL) from human (BD Gentest) and Sprague-Dawley rats (BD Gentest). Compounds were incubated in liver microsomes at 1 μM and samples (30 μL) were taken at 0.5, 15, 30, 45, and 60 min time points for analysis by LC-MS/MS. Hepatocyte stability was assessed in duplicate (n = 2) at a working cell density of 0.5 × 10^6 cells/mL with hepatocytes from human (BiolVT), Sprague-Dawley rat (BiolVT), cynomolgus monkey (RILD) or beagle dog (BiolVT). […] The in vitro half-life and intrinsic clearances were determined as previously described.[76]
(§6) In vitro half-life (in vitro t1/2) was determined from the slope value in [drawing 1] where k was determined by linear regression of the natural logarithm of the remaining percentage of the parent drug vs the incubation time curve.

[9] = Metabolic stability in liver microsomes; assay type: in vitro ADME, Sprague-Dawley rat; settings: for Remaining Percentage: rat LM
Experimental: as §5, §6

[10] = Plasma stability; assay type: in vitro ADME, human; settings: human plasma
Experimental: (§1) Assessment of compounds to determine stability in incubations containing plasma of human (Pharmaron) and Sprague-Dawley rat (IPHASE) was performed by Pharmaron, Inc. using the compound […] approach. Compounds were assessed in duplicate (n = 2) and incubated in plasma at 5 μM and samples (50 μL) were taken at 0, 15, 30, 60, and 120 min time points for analysis by LC-MS/MS. Peak area ratios were determined from the extracted ion chromatogram and the percent compound remaining at each time point was calculated by the following equation: [drawing 2] where peak area ratiot min is the peak area ratio of control and test compound at t min and peak area ratio0 min is the peak area ratio of control and test compound at zero time point.

[11] = Plasma stability; assay type: in vitro ADME, Sprague-Dawley rat; settings: rat plasma
Experimental: as §1

[12] = Caco-2 permeability; assay type: in vitro ADME; settings: human; for recovery at 2 h, 5 μM: Caco-2, Caco-2
[13] = system: Caco-2 cells; assay: Caco-2 permeability; assay type: in vitro ADME; settings: Caco-2
[14] = MDCKII-MDR1 permeability; assay type: in vitro ADME, canine; settings: dog, MDCK-MDR1, MDCKII-MDR1
Experimental: (§7) A 96-well HTS Transwell plate (Corning) was used for Caco-2 and MDCKII-MDR1 cell seeding. […] Plates were incubated at 37 °C for 2 h, and samples (50 μL) were taken at the beginning and end of the incubation in both the donor and acceptor wells with the assay run in duplicate (n = 2). Samples were analyzed by LC-MS/MS.
(§8) The efflux ratio was determined by using the following equation: [drawing 4] where Papp (B–A) indicates the apparent permeability in the basolateral to apical direction and Papp (A–B) indicates the apparent permeability in the apical to basolateral direction.

[15] = system: MDCKII-MDR1 cells; assay: MDCKII-MDR1 permeability; assay type: in vitro ADME, canine; settings: MDCKII-MDR1
Experimental: as §7, §8

[16] = system: MDR1; assay: MDCKII-MDR1 permeability; assay type: in vitro ADME, canine; settings: dog, MDCK-MDR1
Experimental: as §7, §8

[17] = Plasma protein binding by equilibrium dialysis; assay type: in vitro ADME; settings: human; for fraction unbound at 6 h, 5 μM: read-out: fu,plasma% / %Unbound (converted)
Experimental: Plasma protein binding and brain tissue binding were determined by Pharmaron, Inc. using the equilibrium dialysis method. […] Following incubation, the samples were analyzed by LC-MS/MS and the concentrations of the compounds were determined in the buffer and plasma solution chambers.

[18] = molecular target: T3, EGFRL858R (Homo sapiens, UniProt P00533, L858R); assay: KINOMEScan KdELECT Kd determination; assay type: binding; design: purchased Eurofins DiscoverX (contract assay)
T3 sequence (P00533 25-1210 L858R): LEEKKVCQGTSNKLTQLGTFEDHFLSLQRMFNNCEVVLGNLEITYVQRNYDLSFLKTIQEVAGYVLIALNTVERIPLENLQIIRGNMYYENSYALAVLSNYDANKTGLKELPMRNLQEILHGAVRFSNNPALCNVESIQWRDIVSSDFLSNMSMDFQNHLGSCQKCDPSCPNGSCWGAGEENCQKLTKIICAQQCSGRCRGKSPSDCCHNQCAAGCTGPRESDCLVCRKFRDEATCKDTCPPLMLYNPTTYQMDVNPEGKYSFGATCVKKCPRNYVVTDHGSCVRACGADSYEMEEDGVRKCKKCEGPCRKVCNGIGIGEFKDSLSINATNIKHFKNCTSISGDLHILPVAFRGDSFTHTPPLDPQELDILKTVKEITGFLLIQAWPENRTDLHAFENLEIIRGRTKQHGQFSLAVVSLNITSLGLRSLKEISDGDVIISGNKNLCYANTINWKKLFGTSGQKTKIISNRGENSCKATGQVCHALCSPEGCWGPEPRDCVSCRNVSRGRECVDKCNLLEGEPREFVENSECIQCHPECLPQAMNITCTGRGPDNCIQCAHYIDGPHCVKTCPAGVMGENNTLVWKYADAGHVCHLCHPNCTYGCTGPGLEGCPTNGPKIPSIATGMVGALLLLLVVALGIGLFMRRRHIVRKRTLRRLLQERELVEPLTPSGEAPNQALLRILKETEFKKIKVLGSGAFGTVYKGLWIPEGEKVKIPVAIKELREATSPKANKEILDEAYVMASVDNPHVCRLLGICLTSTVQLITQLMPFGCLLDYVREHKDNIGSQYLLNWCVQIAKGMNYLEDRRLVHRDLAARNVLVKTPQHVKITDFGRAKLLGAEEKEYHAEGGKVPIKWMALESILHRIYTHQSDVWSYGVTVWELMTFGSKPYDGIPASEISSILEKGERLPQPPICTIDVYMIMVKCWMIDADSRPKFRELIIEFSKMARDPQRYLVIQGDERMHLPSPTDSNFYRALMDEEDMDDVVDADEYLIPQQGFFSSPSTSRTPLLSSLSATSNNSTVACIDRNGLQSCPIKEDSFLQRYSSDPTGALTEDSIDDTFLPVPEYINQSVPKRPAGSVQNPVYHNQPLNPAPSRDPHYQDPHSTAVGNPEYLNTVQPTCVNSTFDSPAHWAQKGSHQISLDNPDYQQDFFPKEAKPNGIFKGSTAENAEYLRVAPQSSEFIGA
Experimental: as §2

[19] = molecular target: T3, EGFRL858R; assay: KinaseProfiler enzymatic radiometric assay; assay type: biochemical; design: purchased Eurofins Cerep (KinaseProfiler, contract assay); settings: ATP 10 μM, read-out: EGFR IC50
Experimental: as §2

T1 sequence (P00533 25-1210): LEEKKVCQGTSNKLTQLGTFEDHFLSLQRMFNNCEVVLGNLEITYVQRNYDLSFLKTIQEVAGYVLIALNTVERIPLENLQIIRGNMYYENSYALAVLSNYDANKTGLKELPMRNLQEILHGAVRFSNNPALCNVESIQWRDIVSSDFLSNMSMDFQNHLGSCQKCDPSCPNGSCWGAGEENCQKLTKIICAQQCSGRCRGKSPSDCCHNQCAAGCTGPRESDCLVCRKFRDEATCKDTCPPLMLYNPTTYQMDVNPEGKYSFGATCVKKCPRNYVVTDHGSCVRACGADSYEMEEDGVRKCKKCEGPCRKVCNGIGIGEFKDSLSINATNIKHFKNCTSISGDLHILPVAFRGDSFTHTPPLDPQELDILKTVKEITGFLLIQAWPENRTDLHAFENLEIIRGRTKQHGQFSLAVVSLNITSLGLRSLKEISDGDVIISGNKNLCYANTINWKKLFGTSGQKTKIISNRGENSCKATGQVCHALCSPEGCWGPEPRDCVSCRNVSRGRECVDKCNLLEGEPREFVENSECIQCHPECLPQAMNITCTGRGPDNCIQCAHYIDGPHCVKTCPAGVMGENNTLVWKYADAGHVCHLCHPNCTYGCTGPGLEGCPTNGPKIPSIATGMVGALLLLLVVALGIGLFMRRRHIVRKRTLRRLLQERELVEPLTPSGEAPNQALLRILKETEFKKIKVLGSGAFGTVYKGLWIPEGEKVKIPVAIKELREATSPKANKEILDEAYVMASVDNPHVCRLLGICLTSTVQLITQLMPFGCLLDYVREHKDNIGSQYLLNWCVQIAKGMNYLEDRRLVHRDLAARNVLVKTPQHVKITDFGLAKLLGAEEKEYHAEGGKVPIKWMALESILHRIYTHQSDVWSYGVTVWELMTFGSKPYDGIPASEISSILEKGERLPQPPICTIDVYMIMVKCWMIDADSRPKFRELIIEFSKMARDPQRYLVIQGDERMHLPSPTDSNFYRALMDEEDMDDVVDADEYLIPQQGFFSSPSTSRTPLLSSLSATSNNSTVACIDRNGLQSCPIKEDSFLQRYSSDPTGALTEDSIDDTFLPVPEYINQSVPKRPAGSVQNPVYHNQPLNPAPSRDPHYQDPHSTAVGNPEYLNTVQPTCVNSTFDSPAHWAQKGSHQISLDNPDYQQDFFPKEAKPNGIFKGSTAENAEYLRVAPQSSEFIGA

`COc1cc2ncnc(Nc3ccc(F)c(Cl)c3)c2cc1OCCON1CCOCC1` [Compound 6, N-(3-Chloro-4-fluorophenyl)-7-methoxy-6-(2-(morpholinooxy)ethoxy)quinazolin-4-amine] showed a Kd [1] of 0.6 nM, a Kd [2] of 0.3 nM and an IC50 [3] of 5 nM. The IC50 [4] was 4.2 nM, the IC50 [5] was 88 nM and the logD at 2 h, 1 µM [6] was 3.9. For the same molecule, the solubility kinetic at 2 h [7] was 1 µM (≈ 0.449 µg/mL), the “Remaining Percentage” value ([8]; +Cofactors, 15 min) was 49.30% and the “Remaining Percentage” value ([8]; +Cofactors, 30 min) was 28.74%. The “Remaining Percentage” value ([8]; +Cofactors, 45 min) was 20.85%, the “Remaining Percentage” value ([8]; +Cofactors, 60 min) was 14.00% and the “Remaining Percentage” value ([8]; -Cofactors, 60 min) was 89.19%. The half-life at 1 h, 1 µM ([8]; human, liver microsomes, read-out: LM t1/2) was 21.6 min, the microsomal CLint at 1 h, 1 µM ([8]; human, liver microsomes, read-out: LMClint) was 64 µL/min/mg and the half-life at 1 h, 1 µM ([9]; Sprague-Dawley, rat, liver microsomes, read-out: LM t1/2) was 19.5 min. The microsomal CLint at 1 h, 1 µM ([9]; Sprague-Dawley, rat, liver microsomes, read-out: LMClint) was 71 µL/min/mg, the “Remaining Percentage” value ([9]; +Cofactors, 15 min) was 50.62% and the “Remaining Percentage” value ([9]; +Cofactors, 30 min) was 25.81%. The “Remaining Percentage” value ([9]; +Cofactors, 45 min) was 17.98%, the “Remaining Percentage” value ([9]; +Cofactors, 60 min) was 11.88% and the “Remaining Percentage” value ([9]; -Cofactors, 60 min) was 109.68%. For the same molecule, the “Remaining Percentages” value ([10]; 15 min) was 98.26%, the “Remaining Percentages” value ([10]; 30 min) was 102.87% and the “Remaining Percentages” value ([10]; 60 min) was 101.74%. For the same molecule, the “Remaining Percentages” value ([10]; 120 min) was 97.90%, the t1/2 ([10]; ∞ = no degradation) was “∞” and the “Remaining Percentages” value ([11]; 15 min) was 100.23%. The “Remaining Percentages” value ([11]; 30 min) was 99.35%, the “Remaining Percentages” value ([11]; 60 min) was 99.28% and the “Remaining Percentages” value ([11]; 120 min) was 104.21%. The t1/2 ([11]; ∞ = no degradation) was “∞”, the efflux ratio at 2 h, 5 µM ([12]; Caco-2) was 1.9 and the efflux ratio at 2 h, 5 μM ([12]; Caco-2) was 1.91. For the same molecule, the recovery at 2 h, 5 μM ([12]; read-out: Recovery% (AP-BL)) was 53.8%, the recovery at 2 h, 5 μM ([12]; read-out: Recovery% (BL-AP)) was 60.3% and the Papp A→B at 2 h, 5 µM ([12]; Caco-2, 5 μM, 2 h) was 5.6 ×10⁻⁶ cm/s. It also gave a Papp A→B at 2 h, 5 μM ([12]; Caco-2, 5 μM, 2 h) of 5.59 ×10⁻⁶ cm/s, a Papp B→A at 2 h, 5 µM ([12]; Caco-2, 5 μM, 2 h) of 10.7 ×10⁻⁶ cm/s and a Papp B→A at 2 h, 5 μM ([12]; Caco-2, 5 μM, 2 h) of 10.7 ×10⁻⁶ cm/s. The “enhancement in permeability compared with 1” value [13] was 14 fold, the recovery at 2 h, 1 μM ([14]; read-out: Recovery% (AP-BL)) was 51.6% and the recovery at 2 h, 1 μM ([14]; read-out: Recovery% (BL-AP)) was 66.4%. For the same molecule, the “increase in permeability compared to 1” value [15] was “roughly 4 fold”, the efflux ratio at 2 h, 1 µM [16] was 2 and the efflux ratio at 2 h, 1 μM [16] was 1.99. The Papp A→B at 2 h, 1 µM ([16]; 1 μM, 2 h) was 4.2 ×10⁻⁶ cm/s, the Papp A→B at 2 h, 1 μM ([16]; 1 μM, 2 h) was 4.19 ×10⁻⁶ cm/s and the Papp B→A at 2 h, 1 µM ([16]; 1 μM, 2 h) was 8.3 ×10⁻⁶ cm/s. It also gave a Papp B→A at 2 h, 1 μM ([16]; 1 μM, 2 h) of 8.26 ×10⁻⁶ cm/s, a recovery at 6 h, 5 μM ([17]; human plasma) of 101% and a remaining at 6 h, 5 μM ([17]; human plasma) of 99.5%. It also gave a fraction unbound at 6 h, 5 μM ([17]; human plasma) of 0.0512, a fraction unbound at 6 h, 5 μM ([17]; plasma, 5 μM) of 0.0512 and a Kd ([18]; L858R) of 0.8 nM. The “binding and biochemical inhibition of activating mutant bearing EGFR” value ([18]; in words, Tables S1 and S3) was “single-digit nanomolar” and the IC50 [19] was less than 1 nM.
